Experimental data taken from patent US20100143462A1, “NEW CARBAMAZEPHINE FORMULATIONS HAVING INPROVED SOLUBILITY” (NUTRALEASE LTD., priority 2004, published 2010).

Columns and labels:
[1] = following a single oral dose; cited from earlier work
[2] = Solubilization capacity of microemulsion / concentrate for Carbamazepine; assay type: physicochemical; settings: 50 wt % aqueous phase (water:PG 1:1), dilution line 7:3, D-limonene:ethanol 1:1, FIG. 2
Experimental: When solubilizing a drug in a microemulsion system, the solubilization capacity should be characterized. […] For the 7:3 dilution line (FIG. 2), the 5 gr oil phase concentrate comprises 0.75 gr of D-limonene, 0.75 gr EtOH (each being 15 wt %), and 3.5 gr Tween 60 (70 wt %). The 5 gr oil concentrate is then diluted in an aqueous phase of water:propylene glycol (1:1). For the 8:2 dilution line (FIG. 3) the 5 gr oil phase concentrate comprises 0.5 gr of D-limonene, 0.5 gr EtOH (each being 10 wt %), and 4 gr Tween 60 (80 wt %). The 5 gr oil concentrate is then diluted in an aqueous phase of water:propylene glycol (1:1). For the 9:1 dilution line (FIG. 4) the 5 gr oil phase concentrate comprises 0.25 gr of D-limonene, 0.25 gr EtOH (each being 5 wt %), and 4 gr Tween 60 (90 wt %). The 5 gr oil concentrate is then diluted in an aqueous phase of water:propylene glycol (1:1).
Preparations of the microemulsions and microemulsion concentrate were done in the following manner. The surfactant and the oil phase were mixed at the appropriate ratio, 7:3, 8:2 and 9:1 respectively, to form the concentrate. The solubilization of the drug in the concentrate was determined by solubilizing it to form clear solutions, until the maximal amount was reached. […]

- solubilization capacity of microemulsion (solubilized Carbamazepine) [2]: 3.76%
Compound: NC(=O)N1c2ccccc2C=Cc2ccccc21 [Carbamazepine, 5H-Dibenz(b,f)azepine-5-carboxamide]
- elimination half-life of unchanged Carbamazepine in the plasma [1]: approximately 36 hours
